Measured values: PMC10817512, “OSMAC-Based Discovery and Biosynthetic Gene Clusters Analysis of Secondary Metabolites from Marine-Derived Streptomyces globisporus SCSIO LCY30” (Marine Drugs, 2023)
Converted amounts (≈) assume the structure as drawn. Where two headings read alike, the source gives them in different places.

Tests used:
[1] = tested on: human intestinal epithelial cell line NCM460; assay: Cell growth inhibitory (cytotoxic) activity assay; format: cell-based; details: NCM460 (normal intestinal epithelial cell line)
Source text: (§1) The cell growth inhibitory activities of compounds 1–3 against fourteen different human cell lines (human liver cell line LX-2; hepatocellular cancer line HEPG2; human intestinal epithelial cell line NCM460; colorectal cancer cell lines HCT116 and SW480; normal human breast cell line MCF-10A; breast cancer cell line MCF7; triple-negative breast cancer cell lines MDA-MB-231, MDA-MB-468, and Bt-549; human umbilical vein endothelial cell line; lung cancer cell line A549; cervical cancer cell line Hela; and cholangiocarcinoma cell line RBE) were tested according to the previously published methods. SPSS software version 22.0 was used to test the IC50 values. Cisplatin and adriamycin were used as positive control agents, and all the experiments were carried out in triplicate.

[2] = tested on: normal human breast cell line MCF-10A; assay: Cell growth inhibitory (cytotoxic) activity assay; format: cell-based; details: MCF-10A (normal human breast cell line)
Source text: as §1

[3] = tested on: human umbilical vein endothelial cell line HUVEC; assay: Cell growth inhibitory (cytotoxic) activity assay; format: cell-based
Source text: as §1

[4] = tested on: human liver cell line LX-2; assay: Cell growth inhibitory (cytotoxic) activity assay; format: cell-based; details: LX-2 (human liver cell line)
Source text: as §1

[5] = tested on: colorectal cancer cell line SW480; assay: Cell growth inhibitory (cytotoxic) activity assay; format: cell-based, human; details: SW480 (colorectal cancer)
Source text: as §1

[6] = tested on: lung cancer cell line A549; assay: Cell growth inhibitory (cytotoxic) activity assay; format: cell-based, human; details: Homo sapiens
Source text: as §1

[7] = tested on: triple-negative breast cancer cell line MDA-MB-468; assay: Cell growth inhibitory (cytotoxic) activity assay; format: cell-based, human; details: MDA-MB-468 (TNBC)
Source text: as §1

[8] = tested on: cervical cancer cell line Hela; assay: Cell growth inhibitory (cytotoxic) activity assay; format: cell-based, human
Source text: as §1

[9] = tested on: triple-negative breast cancer cell line Bt-549; assay: Cell growth inhibitory (cytotoxic) activity assay; format: cell-based, human; details: Bt-549 (TNBC)
Source text: as §1

[10] = tested on: colorectal cancer cell line HCT116; assay: Cell growth inhibitory (cytotoxic) activity assay; format: cell-based, human
Source text: as §1

[11] = tested on: cholangiocarcinoma cell line RBE; assay: Cell growth inhibitory (cytotoxic) activity assay; format: cell-based, human
Source text: as §1

[12] = tested on: triple-negative breast cancer cell line MDA-MB-231; assay: Cell growth inhibitory (cytotoxic) activity assay; format: cell-based, human; details: MDA-MB-231 (TNBC)
Source text: as §1

[13] = tested on: hepatocellular cancer line HEPG2; assay: Cell growth inhibitory (cytotoxic) activity assay; format: cell-based, human
Source text: as §1

MRSA = assay: Antibacterial MIC, CLSI microdilution; format: cell-based, Staphylococcus aureus; details: Staphylococcus aureus, 37 °C, 16–18 h, read-out: MIC
Method: (§2) An antibacterial activity test of compounds 1–3 was conducted according to a standard protocol provided by the Clinical and Laboratory Standards Institute (CLSI). Sixteen bacterial strains were used, including Staphylococcus aureus ATCC 29213, Staphylococcus aureus 16339, Staphylococcus aureus 1862, Staphylococcus aureus 3090, Staphylococcus aureus 991, Staphylococcus aureus 669, Staphylococcus aureus 745324, Staphylococcus aureus 16162, Staphylococcus aureus (cfr) GDE4P037P, Enterococcus faecalis ATCC 29212, Enterococcus faecalis 36950, Micrococcus luteus ML01, MRSA, Bacillus subtilis BS01, Enterococcus gallinarum 5F52C, and Enterococcus faecium 36711. Compounds 1–3 were dissolved in DMSO at a concentration of 3.2 mg/mL, and vancomycin and ampicilin were used as antibacterial control agents. […] All the assays were carried out in triplicate.

[14] = tested on: Staphylococcus simulans AKA1; assay: Antibacterial MIC, CLSI microdilution; format: cell-based; details: Staphylococcus simulans AKA1; 37 °C, 16–18 h; read-out: MIC
[15] = tested on: Enterococcus faecalis 36950; assay: Antibacterial MIC, CLSI microdilution; format: cell-based; details: Enterococcus faecalis 36950; 37 °C, 16–18 h; read-out: MIC
Method: as §2

[16] = tested on: Staphylococcus aureus 669; assay: Antibacterial MIC, CLSI microdilution; format: cell-based; details: Staphylococcus aureus 669; 37 °C, 16–18 h; read-out: MIC
Method: as §2

[17] = tested on: Staphylococcus aureus 745324; assay: Antibacterial MIC, CLSI microdilution; format: cell-based; details: Staphylococcus aureus 745324; 37 °C, 16–18 h; read-out: MIC
Method: as §2

[18] = tested on: Staphylococcus aureus 1862; assay: Antibacterial MIC, CLSI microdilution; format: cell-based; details: Staphylococcus aureus 1862; 37 °C, 16–18 h; read-out: MIC
Method: as §2

[19] = tested on: Enterococcus gallinarum 5F52C; assay: Antibacterial MIC, CLSI microdilution; format: cell-based; details: Enterococcus gallinarum 5F52C; 37 °C, 16–18 h; read-out: MIC
Method: as §2

[20] = tested on: Staphylococcus aureus 991; assay: Antibacterial MIC, CLSI microdilution; format: cell-based; details: Staphylococcus aureus 991; 37 °C, 16–18 h; read-out: MIC
Method: as §2

[21] = tested on: Staphylococcus aureus 16162; assay: Antibacterial MIC, CLSI microdilution; format: cell-based; details: Staphylococcus aureus 16162; 37 °C, 16–18 h; read-out: MIC
Method: as §2

[22] = tested on: Staphylococcus aureus 3090; assay: Antibacterial MIC, CLSI microdilution; format: cell-based; details: Staphylococcus aureus 3090; 37 °C, 16–18 h; read-out: MIC
Method: as §2

[23] = tested on: Enterococcus faecalis ATCC 29212; assay: Antibacterial MIC, CLSI microdilution; format: cell-based; details: ATCC29212; Enterococcus faecalis ATCC 29212; 37 °C, 16–18 h; read-out: MIC
Method: as §2

[24] = tested on: Enterococcus faecium 36711; assay: Antibacterial MIC, CLSI microdilution; format: cell-based; details: Enterococcus faecium 36711; 37 °C, 16–18 h; read-out: MIC
Method: as §2

[25] = tested on: Staphylococcus aureus ATCC 29213; assay: Antibacterial MIC, CLSI microdilution; format: cell-based; details: ATCC29213; Staphylococcus aureus ATCC 29213; 37 °C, 16–18 h; read-out: MIC
Method: as §2

[26] = tested on: Staphylococcus aureus 16339; assay: Antibacterial MIC, CLSI microdilution; format: cell-based; details: Staphylococcus aureus 16339; 37 °C, 16–18 h; read-out: MIC
Method: as §2

[27] = tested on: Staphylococcus aureus (cfr) GDE4P037P; assay: Antibacterial MIC, CLSI microdilution; format: cell-based; details: Staphylococcus aureus (cfr) GDE4P037P; 37 °C, 16–18 h; read-out: MIC
Method: as §2

Bacillus subtilis BS01 = assay: Antibacterial MIC, CLSI microdilution; format: cell-based; details: Bacillus subtilis BS01; 37 °C, 16–18 h; read-out: MIC
Method: as §2

Micrococcus luteus ML01 = assay: Antibacterial MIC, CLSI microdilution; format: cell-based; details: Micrococcus luteus, ML01, Micrococcus luteus ML01; 37 °C, 16–18 h; read-out: MIC
Method: as §2

[28] = tested on: breast cancer cell line MCF7; assay: Cell growth inhibitory (cytotoxic) activity assay; format: cell-based, human
Source text: SPSS software version 22.0 was used to test the IC50 values.

`COc1cccc2c1C(=O)c1c(O)c3c(c(O)c1C2=O)C[C@@](O)(C(=O)CO)C[C@@H]3O[C@H]1C[C@H](N)[C@H](O)[C@H](C)O1` [Adriamycin, reference compound] showed an IC50 ([1]; Homo sapiens) of 3.89 µM, an IC50 [2] of 3.72 µM and an IC50 [3] of 12 µM. For the same compound, the IC50 [4] was 1.36 µM, the IC50 ([5]; Homo sapiens) was 17.5 µM and the IC50 [6] was 1.51 µM. The IC50 ([7]; Homo sapiens) was 3.16 µM, the IC50 ([8]; Homo sapiens) was 7.02 µM and the IC50 ([9]; Homo sapiens) was 3.75 µM. The IC50 ([10]; Homo sapiens, HCT-116) was 1.54 µM, the IC50 ([11]; Homo sapiens) was 4.26 µM and the IC50 ([12]; Homo sapiens) was 4.04 µM. The IC50 ([13]; Homo sapiens) was 15.5 µM.
Compound `CC1(C)S[C@@H]2[C@H](NC(=O)[C@H](N)c3ccccc3)C(=O)N2[C@H]1C(=O)O` [Ampicillin, reference compound] has an MIC (MRSA) of 32 µg/mL (≈ 91.6 µM), an MIC [14] of over 64 µg/mL and an MIC [15] of over 64 µg/mL. For the same compound, the MIC [16] was 8 µg/mL (≈ 22.9 µM), the MIC [17] was 4 µg/mL (≈ 11.4 µM) and the MIC [18] was 4 µg/mL (≈ 11.4 µM). It also gave an MIC [19] of 8 µg/mL (≈ 22.9 µM), an MIC [20] of 4 µg/mL (≈ 11.4 µM) and an MIC [21] of 16 µg/mL (≈ 45.8 µM). The MIC [22] was 16 µg/mL (≈ 45.8 µM), the MIC [23] was 1 µg/mL (≈ 2.86 µM) and the MIC [24] was over 64 µg/mL. The MIC [25] was 1 µg/mL (≈ 2.86 µM), the MIC [26] was 64 µg/mL (≈ 183 µM) and the MIC [27] was 16 µg/mL (≈ 45.8 µM). For the same compound, the MIC (Bacillus subtilis BS01) was 0.13 µg/mL (≈ 0.372 µM) and the MIC (Micrococcus luteus ML01) was 0.13 µg/mL (≈ 0.372 µM).
`N.N.[Cl][Pt][Cl]` [Cisplatin, reference compound] showed an IC50 [1] of 3.17 µM, an IC50 [2] of 6.43 µM and an IC50 [3] of 7.7 µM. For the same compound, the IC50 [4] was 12.1 µM, the IC50 [28] was 4.56 µM and the IC50 [5] was 1.82 µM. For the same compound, the IC50 [7] was 8.35 µM, the IC50 [8] was 7.62 µM and the IC50 [9] was 7.54 µM. It also gave an IC50 [10] of 4.83 µM, an IC50 [11] of 13.5 µM and an IC50 [12] of 15.7 µM. For the same compound, the IC50 [13] was 11 µM.
